In data set [1] the test system is heat shock response. As to conditions: cited from earlier work.
In data set [2] the test system is human Hsp70 promoter. Description: Heat shock induction in L 929 fibroblast cells, luciferase under human Hsp70 promoter. Format: cell-based, mouse. The note with it: for increase of heat shock response with respect to the control: 37° C.; for increase of heat shock response compared with the control: 40° C. As for the experimental part:
Acetyl, propanoyl, n-butanoyl, n-octanoyl and n-decanoyl salicylates were tested for their ability to induce heat shock response in an in vitro system using L 929 fibroblast cells, in which the enzyme luciferase was cloned under the transcriptional control of the human Hsp70 promoter (Proc. Natl. Acad. Sci USA, 92, 7207-7211, 1995). The effects of the mentioned compounds on heat shock induction at different temperatures have been compared using Bimoclomol as reference compound (Table 1). As reported in Table 1, propanoyl salicylate and Bimoclomol at 37° C. increase the heat shock response by 33% with respect to the control, while n-butanoyl, n-octanoyl and n-decanoyl salicylates increase it up to 67%. […] (Nature Medicine, 3, 1150-1154, 1997).

Data set [3] concerns Hsp70. Kind of data set: Heat shock response in NHEK cells, Hsp70 ELISA. Format: cell-based. As to conditions: NHEK keratinocytes, 18 hours at 37° C., no heat shock. On the procedure: Acetyl, propanoyl, n-butanoyl, n-octanoyl and n-decanoyl salicylates, synthesized according to Example 1 or 2, were tested for their ability to induce heat shock response in an in vitro system using cells NHEK.
NHEK cells, grown at 37° C. to 75% confluence, were treated with different doses of propanoyl, n-butanoyl, n-octanoyl and n-decanoyl salicylates at a concentration range from 0 to 50 μM, using 50 mM sorbitol and heat shock at 42° C. as positive controls. After incubation for 18 hours at 37° C., Hsp70 levels were quantitatively determined on keratinocytes using the ELISA kit by StressGen.
Background: An ELISA detects its analyte on a solid surface through an enzyme-linked reagent.

Data set [4] relates to UV-B induced erythema. Description: Prevention and repair of UV-B induced skin damage. The class given is in vivo. As to conditions: guinea pigs, topical; untreated: erythema observed four hours after irradiation.
Method: The effect of acyl-salicylates in the prevention and repair of UV-B induced skin damage was determined with an in vivo test, on female Hartley albino guinea pigs, using the propanoyl salicylate as model compound. The animals, that weighed about 400 g, were shaved with a commercial cream 24 h before irradiation. Propanoyl salicylate was applied 120 minutes before irradiation on the head distal area, on a 5 cm^2 rectangular area at a dose of about 2 mg/cm^2, the head proximal area serving as control site. A bank of four lamps providing a mean irradiation of about 1.2 mW/cm^2 at 310 nm was used as UV-B source. Following light exposure, sites were occluded with a cotton pad. The erythema following UV-B exposure was evaluated according to the following scale: not irradiated, 0, pale pink; slight erythema, 1, pink; moderate erythema, 2, intense pink; severe erythema, 3, intense pink, edema; ulcerated erythema, 4, intense pink, ulceration. One MED (minimal erythemal dose to obtain an erythema grade 1) for untreated animals corresponds to 5 minutes exposure at 400 mJ/cm^2. The protection effect was calculated as the ratio of protected skin MED to unprotected skin MED.
Data set [5] can be described thus: Stability as crystalline compound and in solution. The class given is physicochemical. As for the experimental part: The mixture was stirred at room temperature for 30 minutes and kept at 70° C. for 2 hours. The reaction mixture was poured into ice water and the precipitated product was filtered in vacuo, dried and recrystallized tree times from toluene or ethanol as solvent. […] The ^1H-NMR spectrum of the synthesized propanoyl salicylate is consistent with the proposed structure.

For data set [6], the target named is heat shock transcription factor (HSF) (Homo sapiens, UniProt Q00613). The note with it: 2-30 mM; cited from earlier work.
Where [7] appears, read: temperature stress 37° C., control (None) 0.3.
Where [8] appears, read: temperature stress 40° C., control (None) 4.6.

Results on four compounds are retold here after US20060148767A1, “Use of acyl salicylates as heat shock inducers” (priority 2001, published 2006).

heat shock transcription factor (HSF), sequence (Q00613 whole entry): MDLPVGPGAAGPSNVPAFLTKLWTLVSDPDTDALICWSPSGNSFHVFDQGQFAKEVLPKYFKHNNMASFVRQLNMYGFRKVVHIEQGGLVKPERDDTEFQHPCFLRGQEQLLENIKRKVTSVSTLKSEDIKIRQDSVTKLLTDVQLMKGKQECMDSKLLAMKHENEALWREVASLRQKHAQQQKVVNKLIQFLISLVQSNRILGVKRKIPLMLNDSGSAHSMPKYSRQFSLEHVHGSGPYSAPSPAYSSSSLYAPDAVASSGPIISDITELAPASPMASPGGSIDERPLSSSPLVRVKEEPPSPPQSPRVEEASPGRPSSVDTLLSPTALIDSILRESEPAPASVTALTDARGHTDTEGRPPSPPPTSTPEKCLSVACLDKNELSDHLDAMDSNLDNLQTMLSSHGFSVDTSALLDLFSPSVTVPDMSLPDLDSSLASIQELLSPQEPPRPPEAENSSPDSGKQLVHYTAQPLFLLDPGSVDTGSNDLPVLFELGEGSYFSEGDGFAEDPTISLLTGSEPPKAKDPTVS

With `OC(CO/N=C(\Cl)c1cccnc1)CN1CCCCC1` (stereo not shown) [Bimoclomol, reference compound], the “temperature of maximum induction activity” value in data set [1] is 43 °C. For the same compound, the “increase of heat shock response with respect to the control” value in data set [2] is on record as 33%. Further, the “increase of heat shock response compared with the control” value in data set [2] worked out at 20%. The Luciferase activity in data set [2] (setting [7]) was 0.4 arbitrary units × 10^−5; in data set [2] (setting [8]), 5.5 arbitrary units × 10^−5.

With `CCCCCCCC(=O)OC(=O)c1ccccc1O` [Octanoyl salicylate, n-octanoyl salicylate], in data set [3] (50 μM), the “increase of Hsp70 levels” value is listed as “up to 130%”. For the same compound, the Luciferase activity came to 0.5 arbitrary units × 10^−5 in data set [2] (setting [7]) and 6.3 arbitrary units × 10^−5 in data set [2] (setting [8]).

As for `CCC(=O)OC(=O)c1ccccc1O` [Propanoyl salicylate], in data set [3] (5 μM), the “increase of Hsp70 levels” value is listed as “up to 89%”. Further, in data set [4], the “time after UV-B irradiation at which erythema appeared in the treated area” value was in the range of 7 to 10 h. For the same compound, the stability result in data set [5] is “compatible with its use in cosmetic and pharmaceutical formulations”. In data set [2], the “increase of heat shock response with respect to the control” value is given as 33% and the “increase of heat shock response compared with the control” value is reported as 107%. Moreover, in data set [2] (setting [7]), the Luciferase activity is 0.4 arbitrary units × 10^−5. Besides, in data set [2] (setting [8]), the Luciferase activity came out at 9.5 arbitrary units × 10^−5.

As for `O=C([O-])c1ccccc1O.[Na+]` [sodium salicylate], in data set [6], the “heat shock gene transcription” value is “does not induce heat shock gene transcription”.
